# Results taken from patent publication US20120141561A1, “NANOPARTICULATE CANDESARTAN CILEXITIL COMPOSITIONS, PROCESS FOR THE PREPARATION THEREOF AND PHARMACEUTICAL COMPOSITIONS CONTAINING THEM” (priority 2009, published 2012).
# Tests used:
# [1] = cited from earlier work
# [2] = rat, in vivo, po, 10 mg/kg
# Description: In Vivo Pharmacokinetic Tests Male Sprague-Dawley Rats in Fasted Condition
# Comparative In Vivo Pharmacokinetic Tests in Male Sprague-Dawley Rats in Fasted Condition
# Both test substances were administered via gastric tube in a dosing volume of 5 ml/kg. The vehicle of the test items was sterile 0.9% NaCl solution and the suspension was kept homogenous by continuous stirring during treatment in order to minimize the error resulting from the sedimentation.
# Male Wistar rats (purchased from Laboratory Animal Center, University of Szeged) were maintained on a standard pellet rodent diet (Bioplan Ltd, Isaszeg, Hungary) under temperature and light-controlled conditions with tap water available ad libitum. The acclimatization period was at least 4 days. […] All animals were fasting for 16 hours before oral treatment. […] Water was available immediately after treatment for all animals. […] Serum samples were prepared by centrifugation (7000 rpm, 10 min, 4° C.) of the clotted blood within 60 minutes and were stored at −20° C. till analysis.
# An aliquot of 200 μl serum was combined with 20 μl of internal standard working solution and 1.2 ml methanol for protein precipitation. The mixture was vortexed for 1 min and centrifuged at 12000 rpm for 10 min at 4° C. The supernatants were evaporated to dryness under a stream of nitrogen at 40° C. and reconstituted with 200 μl of water-methanol (50:50 v/v) and 20 μl was injected into the HPLC system.
# Statistical analysis and graph drawing were carried out be GraphPad Prism 4.0 (GraphPad Software, San Diego, USA).
# [3] = Comparative dissolution test in distillate water; assay type: physicochemical; settings: 5 mg in 10 mL distillate water
# Description: The suspension was stirred for 1, 5, 10, 15, 20, and 30 minutes and then it was filtered by 0.2 μm disposable syringe filter.
# [4] = monotherapy, 108 of 3260 patients; cited from earlier work
# [5] = cited from earlier work; remark: listed apart in the source
# [6] = rats; cited from earlier work
# [7] = intravenous dose of 14C-labeled Candesartan
structure (smiles),measurement,setting,value
"CCOc1nc2cccc(C(=O)OC(C)OC(=O)OC3CCCCC3)c2n1Cc1ccc(-c2ccccc2-c2nnn[nH]2)cc1 (racemic) [Candesartan Cilexetil, (±)-1-Hydroxyethyl 2-ethoxy-1-[p-(o-1H-tetrazol-5-ylphenyl)benzyl]-7-benzimidazolecarboxylate, cyclohexyl carbonate (ester)]",solubility in methanol,[1]; methanol,sparingly soluble
same,solubility in water,[1]; water,practically insoluble
same,AUC15-120 min,[2],120.8 µg·min/mL
same,AUC15-360 min,[2],420.2 µg·min/mL
same,maximal serum Candesartan concentration (Cmax),[2],1.612 ± 0.248 µg/mL
same,tmax,[2],120 min
same,Candesartan Cilexetil content in distilled water by UV-VIS,[3],cannot be detected
same,rate of withdrawals due to adverse events,[4],3.3%
CCOc1nc2cccc(C(=O)O)c2n1Cc1ccc(-c2ccccc2-c2nnn[nH]2)cc1 [Candesartan],dose excreted unchanged in urine,[5]; administered orally,about 26%
same,effect of food with a high fat content on bioavailability,[5]; after Candesartan Cilexetil administration,does not affect
same,absolute bioavailability of Candesartan,[5]; following administration of Candesartan Cilexetil,15%
same,bound to plasma proteins,[5]; in vivo,> 99%
same,elimination half-life,[5]; in vivo,approximately 9 hours
same,penetration of red blood cells,[5]; in vivo,does not penetrate red blood cells
same,renal clearance,[5]; in vivo,0.19 mL/min/kg
same,total plasma clearance,[5]; in vivo,0.37 mL/min/kg
same,volume of distribution,[5]; in vivo,0.13 L/kg
same,radioactivity recovered in feces,[5]; [7],approximately 36%
same,radioactivity recovered in urine,[5]; [7],approximately 59%
same,accumulation in serum,[5]; repeated once-daily dosing,do not accumulate
same,crossing of the blood-brain barrier,[6],"crosses the blood-brain barrier poorly, if at all"
same,passage across the placental barrier,[6],passes across the placental barrier and is distributed in the fetus
